Results: US20110312945A1, “CRTH2 MODULATORS” (priority 2008, published 2011)

Columns and labels:
CRTH2 [1] = biological target: T1, CRTH2 (Homo sapiens, UniProt Q9Y5Y4); assay: DPBS CD11b Antagonist Assay; assay type: cell-based; settings: polymorphonuclear cells in PBS, eosinophil CD11b expression, challenge with 15R-Methyl-PGD2 (10 nM)
T1 construct: polymorphonuclear cells (0.5 ml; 10^6/ml cells) in PBS containing 0.9 mM CaCl2 and 0.5 mM MgCl2; endogenous in cells; host or cells: polymorphonuclear cells (eosinophils gated by flow cytometry)
T1 sequence (Q9Y5Y4 1-395): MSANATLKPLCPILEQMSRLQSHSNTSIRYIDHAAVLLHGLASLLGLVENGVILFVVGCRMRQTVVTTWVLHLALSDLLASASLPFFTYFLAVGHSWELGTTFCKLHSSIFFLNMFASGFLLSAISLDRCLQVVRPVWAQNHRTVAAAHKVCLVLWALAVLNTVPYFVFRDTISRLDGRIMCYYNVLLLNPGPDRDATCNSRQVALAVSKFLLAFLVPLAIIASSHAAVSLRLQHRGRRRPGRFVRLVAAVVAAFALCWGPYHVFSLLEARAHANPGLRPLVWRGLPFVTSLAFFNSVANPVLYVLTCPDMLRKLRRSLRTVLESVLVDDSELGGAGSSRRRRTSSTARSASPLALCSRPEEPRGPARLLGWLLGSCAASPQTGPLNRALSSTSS
Method: DPBS CD11b Antagonist Assay. The potential CRTH2 antagonist activity of certain compounds was tested using a CD11b expression assay using essentially the method described by Monneret et al. (J Pharmacol Exp Ther 304:349-55, 2003). Briefly, polymorphonuclear cells (0.5 ml; 10^6/ml cells) in PBS containing 0.9 mM CaCl2 and 0.5 mM MgCl2) were preincubated with various concentrations of test compounds at room temperature for 10 minutes before they were challenged with the agonist 15R-Methyl-PGD2 (10 nM). The incubations were terminated by the addition of ice-cold FACSFlow (BD Biosciences; Cat# 342003) and centrifugation (400 g for 5 minutes at 4° C.). The cells were then incubated for 30 minutes at 4° C. with a mixture of PE-labeled mouse anti-human VLA-4 (5 μl; BD Biosciences) and FITC-labeled mouse anti-human CD11b (10 μl; Beckman Coulter). The cells were then incubated with Optilyse C (0.25 ml; Beckman Coulter) for 15 minutes, centrifuged, and then fixed in PBS (0.4 ml; calcium and magnesium free) containing 1% formaldehyde. The distribution of fluorescence intensities among 60,000 cells was measured by flow cytometry. Eosinophils were gated out on the basis of their granularity (high side scatter) and labeling with VLA-4 (PE fluorescence). CD11b was then measured in the eosinophil region on the basis of fluorescence due to FITC. All data were corrected for the value obtained for the corresponding isotope control antibody.

CRTH2 [2] = biological target: T1, CRTH2; assay: Human Whole Blood CD11b Antagonist Assay; assay type: cell-based; settings: eosinophil CD11b expression, challenge with 15R-Methyl-PGD2 (10 nM)
Method: Human Whole Blood CD11b Antagonist Assay (modified from Nicholson, et al. Pulmonary Pharmacology and Therapeutics: 20 (2007); 52-59). The potential CRTH2 antagonist activity of certain compounds was tested in human whole blood using an assay that tests the ability of the compounds to block the CD11b expression in eosinophils by 15-R-methyl-PGD2. A CRTH2 antagonist should block CD11b expression by subsequently added 15-Methyl-PGD2. Human whole blood (200 μL) was incubated at 37° C. for 10 minutes in the presence of various concentrations of test compounds before being challenged with the agonist 15R-Methyl-PGD2 (10 nM). Reactions were terminated by the addition of ice-cold PBS+0.5% BSA+2 mMEDTA (1 mL) and centrifugation (300×g for 5 minutes at 4° C.) Cells were then incubated at 4° C. for 10 min in the presence of human IgG. Cells were then incubated for 30-45 min with a mixture of PE-Cy5-labeled mouse anti-human CD16 (10 ul; BD Biosciences) and FITC-labeled mouse anti-human CD11b (10 μL; Beckman Coulter.) After rinsing (1 mL ice-cold PBS+0.5% BSA+2 mMEDTA), red blood cells were lysed by the addition of 1 mL ice-cold H2O to the cell pellet for 30 sec-1 min immediately followed by the addition of 3.5% NaCl (300 μL.) Cells were then rinsed (2x−1 ml ice cold PBS+0.5% BSA+2 mMEDTA) and fixed in PBS containing 1% formaldehyde. The distribution of fluorescence intensities was measured by flow cytometry. Eosinophils were gated out on the basis of their granularity (high side scatter) and absence of CD-16. CD11b was then measured on this eosinophil population on the basis of fluorescence due to FITC.

[3] = test system: DK-PGD2-induced systemic eosinophilia; assay: DK-PGD2-Induced Systemic Eosinophilia in Rats; assay type: in vivo; settings: Rattus norvegicus, Eosinophil; female Sprague-Dawley rats, oral dosing 30 min before intracardiac 10 μg DK-PGD2, blood eosinophils at 60 min
Method: DK-PGD2-Induced Systemic Eosinophilia in Rats. Female Sprague-Dawley rats (175-250 g) were dosed orally with test compound (or vehicle). Thirty minutes after dosing, animals were anaesthetized with isoflurane. Following induction of anaesthesia, animals received an intracardiac injection of 10 μg DK-PGD2 in 0.3 ml heparinized (10 U/ml) saline. Control animals received an injection of 0.3 ml heparinized saline. Sixty minutes after the intracardiac injection, animals were again anesthetized with isoflurane and a blood sample was drawn from the abdominal aorta (into heparin) while the rat was anaesthetized but not dead. An aliquot of blood (500 μL) was mixed with an equal volume of 4% dextran (mw 500,000) and the erythrocytes were allowed to settle. A cytospin preparation was made from the resulting leukocyte rich fraction (top) and the cytospin was fixed and stained with Diff-Quick Stain kit (Dade Behring Inc, Newark, Del.). An aliquot of the leukocyte rich fraction was taken for total leukocyte count using flow cytometer (Guava EasyCyte Mini system). Differential leukocyte counts were obtained from the cytospin preparations. Blood eosinophil numbers were determined from the total leukocyte count and the percentage eosinophils.

IC50 (CRTH2 [1]) [nM] | IC50 (CRTH2 [2]) [nM] | SMILES | ED50 [3] [mg/kg]
< 5 | 5 to 100 | Cc1c(Cc2ccc(S(=O)(=O)N3CCCC3)cc2)c2c(n1CC(=O)O)CCC(C)(C)C2 [Example I-4, 2-(2,5,5-Trimethyl-3-(4-(pyrrolidin-1-ylsulfonyl)benzyl)-4,5,6,7-tetrahydro-1H-indol-1-yl)acetic acid] | < 1
5 to 100 |  | Cc1c(Cc2ccc(S(=O)(=O)N3CCCC3)cc2)c2c(n1CC(=O)O)CCC2 [Example I-19, 2-(2-Methyl-3-(4-(pyrrolidin-1-ylsulfonyl)benzyl)-5,6-dihydrocyclopenta[b]pyrrol-1(4H)-yl)acetic acid] | < 1
< 5 | > 500 | Cc1c(Sc2ccc(S(=O)(=O)N3CCCC3)cc2)c2c(n1CC(=O)O)CCC(C)(C)C2 [Example I-38, 2-(2,5,5-trimethyl-3-(4-(pyrrolidin-1-ylsulfonyl)phenylthio)-4,5,6,7-tetrahydro-1H-indol-1-yl)acetic acid] | 
100 to 500 | > 500 | Cc1c(Sc2ccc(S(=O)(=O)N3CCOCC3)cc2)c2c(n1CC(=O)O)CC(C)(C)CC2=O [Example I-41, 2-(2,6,6-trimethyl-3-(4-(morpholinosulfonyl)phenylthio)-4-oxo-4,5,6,7-tetrahydro-1H-indol-1-yl)acetic acid] | 
100 to 500 | > 500 | Cc1c(Sc2ccc(S(=O)(=O)N3CCCC3)cc2)c2c(n1CC(=O)O)CC(C)(C)CC2=O [Example I-42, 2-(2,6,6-trimethyl-4-oxo-3-(4-(pyrrolidin-1-ylsulfonyl)phenylthio)-4,5,6,7-tetrahydro-1H-indol-1-yl)acetic acid] | 
> 500 | > 500 | Cc1c(Cc2ccc(S(=O)(=O)N3CCCC3)cc2)c2c(n1CC(=O)O)CC(C)(C)CC2=O [Example I-44, 2-(2,6,6-trimethyl-4-oxo-3-(4-(pyrrolidin-1-ylsulfonyl)benzyl)-4,5,6,7-tetrahydro-1H-indol-1-yl)acetic acid] | 
> 500 | > 500 | Cc1c(Cc2ccc(S(=O)(=O)N3CCOCC3)cc2)c2c(n1CC(=O)O)CC(C)(C)CC2=O [Example I-45, 2-(2,6,6-trimethyl-3-(4-(morpholinosulfonyl)benzyl)-4-oxo-4,5,6,7-tetrahydro-1H-indol-1-yl)acetic acid] | 
100 to 500 |  | CCOC(=O)Cn1c(C)c(Cc2ccccc2S(=O)(=O)N2CCCC2)c2c1CC(C)(C)CC2=O [Example I-51, ethyl 2-(2,6,6-trimethyl-4-oxo-3-(2-(pyrrolidin-1-ylsulfonyl)benzyl)-4,5,6,7-tetrahydro-1H-indol-1-yl)acetate] | < 1

Second part, the molecule before the results:

SMILES | IC50 (CRTH2 [1]) [nM] | IC50 (CRTH2 [2]) [nM] | ED50 [3] [mg/kg]
Cc1c(Cc2ccc(S(=O)(=O)N3CCCC3)cc2)c2c(n1CC(=O)O)CCCC2 [Example I-1, 2-(2-Methyl-3-(4-(pyrrolidin-1-ylsulfonyl)benzyl)-4,5,6,7-tetrahydro-1H-indol-1-yl)acetic acid] | < 5 | 5 to 100 | 1 to 10
Cc1c(Cc2ccc(S(=O)(=O)NC3CCCCC3)cc2)c2c(n1CC(=O)O)CCCC2 [Example I-2, 2-(3-(4-(N-Cyclohexylsulfamoyl)benzyl)-2-methyl-4,5,6,7-tetrahydro-1H-indol-1-yl)acetic acid] | < 5 | 100 to 500 | 1 to 10
Cc1c(Cc2ccccc2S(=O)(=O)c2ccccc2)c2c(n1CC(=O)O)CCC(C)(C)C2 [Example I-9, 2-(2,5,5-Trimethyl-3-(2-(phenylsulfonyl)benzyl)-4,5,6,7-tetrahydro-1H-indol-1-yl)acetic acid] |  |  | < 1
Cc1c(Cc2ccc(S(=O)(=O)N3CCOCC3)cc2)c2c(n1CC(=O)O)CCC(C)(C)C2 [Example I-11, 2-(2,5,5-Trimethyl-3-(4-(morpholinosulfonyl)benzyl)-4,5,6,7-tetrahydro-1H-indol-1-yl)acetic acid] | < 5 | 100 to 500 | < 1
Cc1c(Cc2ccccc2S(=O)(=O)N2CCCC2)c2c(n1CC(=O)O)CCCCC2 [Example I-22, 2-(2-Methyl-3-(2-(pyrrolidin-1-ylsulfonyl)benzyl)-5,6,7,8-tetrahydrocyclohepta[b]pyrrol-1(4H)-yl)acetic acid] | 5 to 100 |  | < 1
Cc1c(Cc2ccccc2S(=O)(=O)N2CCOCC2)c2c(n1CC(=O)O)CCC2 [Example I-23, 2-(2-methyl-3-(2-(morpholinosulfonyl)benzyl)-5,6-dihydrocyclopenta[b]pyrrol-1(4H)-yl)acetic acid] |  |  | 1 to 10
Cc1c(Cc2ccccc2S(=O)(=O)N2CCOCC2)c2c(n1CC(=O)O)C(C)(C)CCC2 [Example I-36, 2-(2,7,7-trimethyl-3-(2-(morpholinosulfonyl)benzyl)-4,5,6,7-tetrahydro-1H-indol-1-yl)acetic acid] | < 5 | 5 to 100 | 
Cc1c(Cc2ccccc2S(=O)(=O)N2CCOCC2)c2c(n1CC(=O)O)CCC(F)(F)C2 [Example I-39, 2-(5,5-difluoro-2-methyl-3-(2-(morpholinosulfonyl)benzyl)-4,5,6,7-tetrahydro-1H-indol-1-yl)acetic acid] | < 5 | < 5 | 
Cc1c(Cc2ccccc2S(=O)(=O)c2ccccc2)c2c(n1CC(=O)O)CC(C)(C)CC2=O [Example I-48, 2-(2,6,6-trimethyl-4-oxo-3-(2-(phenylsulfonyl)benzyl)-4,5,6,7-tetrahydro-1H-indol-1-yl)acetic acid] | < 5 | < 5 | 
Cc1c(Cc2ccccc2S(=O)(=O)N(C)c2ccccc2)c2c(n1CC(=O)O)CC(C)(C)CC2=O [Example I-49, 2-(2,6,6-trimethyl-3-(2-(N-methyl-N-phenylsulfamoyl)benzyl)-4-oxo-4,5,6,7-tetrahydro-1H-indol-1-yl)acetic acid] | < 5 |  | 1 to 10
Cc1c(Cc2ccccc2S(=O)(=O)N2CCCC2)c2c(n1CC(=O)OC(C)C)CC(C)(C)CC2=O [Example I-55, isopropyl 2-(2,6,6-trimethyl-4-oxo-3-(2-(pyrrolidin-1-ylsulfonyl)benzyl)-4,5,6,7-tetrahydro-1H-indol-1-yl)acetate] | 100 to 500 |  | < 1
CCOC(=O)Cn1c(C)c(Cc2ccccc2S(=O)(=O)c2ccccc2)c2c1CC(C)(C)CC2=O [Example I-63, Ethyl 2-(2,6,6-trimethyl-4-oxo-3-(2-(phenylsulfonyl)benzyl)-4,5,6,7-tetrahydro-1H-indol-1-yl)acetate] | 100 to 500 | 100 to 500 | 
